Entries after “also recorded” stand apart in the source; their conditions may differ.
Assays:
patients with ALS = conditions: cited from earlier work
[1] = tested on: SOD1^G85R ALS motor neurons; assay: NF staining of SOD1^G85R ALS iPSC-differentiated motor neurons; type: cell-based, human; conditions: 10 μM gastrodin, 72 hrs, vs untreated
Experimental: (§1) The gastrodin was diluted with dimethyl sulfoxide (DMSO) to 10 mM, added to the motor neurons differentiated at Day 25, Day 35 and Day 45 at a dosage ratio of 1:1,000, and cultured for 72 hours (hrs) for various assays.
(§2) A 4-well culture slide with a glass cover placed thereon was coated with 1% Geltrex®, placed at 37° C. for at least 3 to 4 hrs, washed with phosphate buffered saline (PBS) once after removal of the Geltrex®, and soaked in a culture medium until use. The embryoid bodies were dissociated with enzymes or mechanical force into smaller pieces, seeded on the 4-well culture slide, and cultured for 3 days (optionally for a longer period). […]
(§3) Thereafter, the cells were labeled via nuclear staining by adding 200 μL of 4′,6-diamidino-2-phenylindole (DAPI) (1 μg/mL), reacting in dark for 5 to 15 min at room temperature, removing DAPI, washing with PBST twice for 5 min each, removing PBST, adding PBS to maintain the cell moisture, lifting the glass coverslip with a needle tip, reversing the glass coverslip to the side with 50% glycerol or a mounting gel, storing in dark at 4° C., observing with a fluorescence microscope or a confocal microscope and photographing, and subsequently quantifying the numbers of neurofilaments and nerve fiber beads using an OLYMPUS cellSens Dimension Desktop 2.3 software. […]

ALS motor neurons = assay: ALS motor neurons, summary of axon and neurofilament findings; type: cell-based, human; conditions: 72 hrs after addition of gastrodin
Experimental: as §1

[2] = tested on: sALS iPSC-differentiated motor neurons; assay: NF staining of motor neurons differentiated from sporadic ALS iPSCs; type: cell-based, human; conditions: after treatment with gastrodin
Experimental: as §1, §2, §3

[3] = tested on: B6SJL-Tg (SOD1*G93A) 1Gur/J transgenic mice; assay: ALS model mice: motor abilities, BBB score and survival; type: in vivo
Text: The mice began to develop limb onsets in 80 to 90 days after birth, gradually lose ability to walk, and muscle weakness and atrophy started spreading to the upper parts of body. Most of their voluntary muscles became paralyzed and death after 110 to 120 days due to gradual loss of chewing ability and respiratory failure. The pathological characteristics include symptoms of amyotrophic lateral sclerosis such as muscular dystrophy, synaptic loss of motor neurons, degeneration and death of motor neurons, dismantling of the neuromuscular junction, etc.
Sixty days after birth, the ALS model mice (B6SJL-Tg (SOD1*G93A) 1Gur/J) were administered with gastrodin cycles once every 30 days as a single cycle, and 5 intraperitoneal injection of gastrodin was administered (with one day interval between every two intraperitoneal injections) at the first 10 days. No injection was administered during the subsequent 20 days. A total of two cycles of dosing may be performed until 120 days after birth.
The Example tested whether gastrodin improved the ALS symptoms of transgenic mice.
In this Example, beginning at 60 days after birth, the mice were administered with gastrodin by intraperitoneal injection at a dose of 50 mg/kg or 200 mg/kg for 5 times (with one day interval) every 30 days, until the mice degenerated severely to the extent that the hind lambs lost motor ability completely and until sacrificed. In this Example, motor abilities were tested, and survival time was recorded in days.

[4] = tested on: SOD1^D90A ALS motor neurons; assay: NF staining of SOD1^D90A ALS iPSC-differentiated motor neurons; type: cell-based, human; conditions: for efficacy on increasing number of nerve fibers, gastrodin compared with riluzole / reduction of spherical nerve fiber beads, gastrodin compared with riluzole: comparison of gastrodin and riluzole
Experimental: as §1
A 4-well culture slide with a glass cover placed thereon was coated with 1% Geltrex®, placed at 37° C. for at least 3 to 4 hrs, washed with phosphate buffered saline (PBS) once after removal of the Geltrex®, and soaked in a culture medium until use. The embryoid bodies were dissociated with enzymes or mechanical force into smaller pieces, seeded on the 4-well culture slide, and cultured for 3 days (optionally for a longer period). After the cells adhered and extended outwards to present rosettes with a neural tube-like or a neuronal morphology, the immunofluorescent staining was then performed.
For the immunofluorescent staining, the medium was firstly removed, and then the cells were washed with PBS at room temperature twice. Next, 200 μL of 4% paraformaldehyde was added to the cells, and the mixture was reacted at room temperature for 5 to 15 min to fix the cells. The cells were washed with PBS for 3 times for 5 min each, and 200 μL of 99% methanol or 0.3% Triton® was added. The mixture was incubated for 5 to 15 min at 4° C., and the liquid was removed after permeabilization. The methanol, if used for fixation, was volatilized out. Then, the mixture was washed with PBS for 3 times (each for 5 min), and 200 μL of 5% horse serum was added at room temperature for at least 1 hr for blocking. […] The primary antibody was removed after conjugation for 16 hrs, followed by washing with PBS and Tween® 20 (abbreviated as PBST hereinafter) for 3 times for 5 min each, and a secondary antibody (prepared in PBS at a concentration of 1:500) was added. The secondary antibody was kept in dark for 1 hour at room temperature. After removal of the secondary antibody, the mixture was washed 3 times with PBST for 5 min each.
Thereafter, the cells were labeled via nuclear staining by adding 200 μL of 4′,6-diamidino-2-phenylindole (DAPI) (1 μg/mL), reacting in dark for 5 to 15 min at room temperature, removing DAPI, washing with PBST twice for 5 min each, removing PBST, adding PBS to maintain the cell moisture, lifting the glass coverslip with a needle tip, reversing the glass coverslip to the side with 50% glycerol or a mounting gel, storing in dark at 4° C., observing with a fluorescence microscope or a confocal microscope and photographing, and subsequently quantifying the numbers of neurofilaments and nerve fiber beads using an OLYMPUS cellSens Dimension Desktop 2.3 software.
In this Example, SOD1^D90A ALS iPSCs-differentiated motor neurons were used for comparing the efficacies of gastrodin and riluzole on improvement of ALS symptoms.

SOD1^D90A motor neurons = assay: Calcium ion image analysis after KCl and glutamate stimulation; type: cell-based, human
Experimental: as §1
Cells were seeded on a Geltrex®-coated round glass slide having a diameter of 10 mm, and cultured in a neurobasal medium supplemented with RevitaCell® and compound E for 3 days. 1 μM calcium fluorescent probe Fluo-4 solution was prepared in a physiological buffer containing […], 5 mM KCl, 2 mM CaCl2, 2 mM MgCl2, 10 mM glucose and 10 mM HEPES, and the glass slide on which the cells were seeded was transferred into the 1 μM Fluo-4 solution and cultured at 37° C. for 4 min. The glass slide was transferred into a physiological buffer and cultured at 37° C. for 20 min. The glass slide with cells seeded thereon was transferred into a calcium imaging chamber for imaging under perfusion.
Images were taken under perfusion with a physiological buffer for 30 seconds, then under perfusion with 60 mM KCl for 1 min, and then under perfusion with a physiological buffer for 5 min. Next, images were taken under perfusion with 1 mM glutamate for 1 min, and then under perfusion with a physiological buffer for 5 min. Images were captured with a microscope (Nikon ECLIPSE Ti2-E) and analyzed using NIS-Elements AR software. […]

[5] = intraperitoneal gastrodin from day 60, vs control
[6] = 10 μM gastrodin, 72 hrs, NF staining, vs untreated

Compound | degeneration rate of motor ability (patients with ALS) | amount of nerve fibers [1] | neural axons (ALS motor neurons) | neurofilament accumulation (ALS motor neurons) | amount of nerve fibers [2] | nerve fiber beads [2] | roller residence time ([3]; 50 mg/kg or 200 mg/kg intraperitoneal, 5 times every 30 days from day 60, vs control) | loss of motor ability ([3]; after injection of gastrodin) | mortality rate ([3]; after injection of gastrodin) | symptoms at an earlier stage ([3]; after injection of gastrodin) | suppression on loss of active ability, improvement ([3]; compared to the control group) | BBB scores [3, 5] | extension of life / overall survival time [3, 5] [days] | gripping strength of the hind limbs [3, 5] | amount of nerve fibers [4, 6] | spherical nerve fiber beads [4, 6] | efficacy on increasing number of nerve fibers, gastrodin compared with riluzole [4] | reduction of spherical nerve fiber beads, gastrodin compared with riluzole [4] | response of ALS motor neurons to KCl (SOD1^D90A motor neurons; KCl stimulation) | oversensitive response to glutamate (calcium ion flow) (SOD1^D90A motor neurons; treatment for 72 hrs, 1 mM glutamate stimulation)
CC1=NN(c2ccccc2)C(=O)C1 [Edaravone, edaravone] | can alleviate | – | – | – | – | – | – | – | – | – | – | – | – | – | – | – | – | – | – | –
OCc1ccc(O[C@@H]2O[C@H](CO)[C@@H](O)[C@H](O)[C@H]2O)cc1 [gastrodin] | – | significantly increase | Increased | reduced | increased | decreased | obviously longer than that of the control; also recorded: increased | obviously delayed | reduced | delayed | about 20 days | retarded the decrease | 10 | clearly increased | increased | significantly decreased | comparable to riluzole | by an extent more than riluzole | promoted | significantly decreased
Nc1nc2ccc(OC(F)(F)F)cc2s1 [riluzole, reference compound] | – | – | – | – | – | – | – | – | – | – | – | – | – | – | – | – | comparable to riluzole | by an extent more than riluzole | – | –

Reference: patent publication US11963969B2, “Method for prevention or treatment of amyotrophic lateral sclerosis by administering gastrodin” (BUDDHIST TZU CHI MEDICAL FOUNDATION, priority 2021, dated 2024)
